Read-outs that look alike come from different tables or passages of the source.
Assays:
STK16 = STK16 (Homo sapiens, UniProt O75716); assay: NAK family TR-FRET binding displacement assay; conditions: NAK family FRET screening; read-out: Binding displacement assay STK16 Ki
[1] = mouse liver microsome metabolic stability; conditions: mouse liver microsomes; for T1/2 Ratio (+) ABT / T1/2 Ratio (−) ABT: normalized to propranolol; for T1/2 Ratio: normalization with respect to internal control (propranolol); for CLint scaled / half-life: mouse; for half-life: mean average, n = 2
Description: SGC-GAK-1 (1) was incubated with MLMs in the presence or absence of added NADPH, and the compound was quantified at various time points over an hour.
The metabolic stability of the 4-anilinoquinolines (8–13) were evaluated in MLMs (Table 1). Half-lives for metabolic clearance were normalized to propranolol in each experimental run to control for variations in the MLM preparations.

GAK [2] = target: T1, GAK (Homo sapiens, UniProt O14976); assay: TR-FRET ligand-binding displacement assay
T1 sequence (O14976 1-1311): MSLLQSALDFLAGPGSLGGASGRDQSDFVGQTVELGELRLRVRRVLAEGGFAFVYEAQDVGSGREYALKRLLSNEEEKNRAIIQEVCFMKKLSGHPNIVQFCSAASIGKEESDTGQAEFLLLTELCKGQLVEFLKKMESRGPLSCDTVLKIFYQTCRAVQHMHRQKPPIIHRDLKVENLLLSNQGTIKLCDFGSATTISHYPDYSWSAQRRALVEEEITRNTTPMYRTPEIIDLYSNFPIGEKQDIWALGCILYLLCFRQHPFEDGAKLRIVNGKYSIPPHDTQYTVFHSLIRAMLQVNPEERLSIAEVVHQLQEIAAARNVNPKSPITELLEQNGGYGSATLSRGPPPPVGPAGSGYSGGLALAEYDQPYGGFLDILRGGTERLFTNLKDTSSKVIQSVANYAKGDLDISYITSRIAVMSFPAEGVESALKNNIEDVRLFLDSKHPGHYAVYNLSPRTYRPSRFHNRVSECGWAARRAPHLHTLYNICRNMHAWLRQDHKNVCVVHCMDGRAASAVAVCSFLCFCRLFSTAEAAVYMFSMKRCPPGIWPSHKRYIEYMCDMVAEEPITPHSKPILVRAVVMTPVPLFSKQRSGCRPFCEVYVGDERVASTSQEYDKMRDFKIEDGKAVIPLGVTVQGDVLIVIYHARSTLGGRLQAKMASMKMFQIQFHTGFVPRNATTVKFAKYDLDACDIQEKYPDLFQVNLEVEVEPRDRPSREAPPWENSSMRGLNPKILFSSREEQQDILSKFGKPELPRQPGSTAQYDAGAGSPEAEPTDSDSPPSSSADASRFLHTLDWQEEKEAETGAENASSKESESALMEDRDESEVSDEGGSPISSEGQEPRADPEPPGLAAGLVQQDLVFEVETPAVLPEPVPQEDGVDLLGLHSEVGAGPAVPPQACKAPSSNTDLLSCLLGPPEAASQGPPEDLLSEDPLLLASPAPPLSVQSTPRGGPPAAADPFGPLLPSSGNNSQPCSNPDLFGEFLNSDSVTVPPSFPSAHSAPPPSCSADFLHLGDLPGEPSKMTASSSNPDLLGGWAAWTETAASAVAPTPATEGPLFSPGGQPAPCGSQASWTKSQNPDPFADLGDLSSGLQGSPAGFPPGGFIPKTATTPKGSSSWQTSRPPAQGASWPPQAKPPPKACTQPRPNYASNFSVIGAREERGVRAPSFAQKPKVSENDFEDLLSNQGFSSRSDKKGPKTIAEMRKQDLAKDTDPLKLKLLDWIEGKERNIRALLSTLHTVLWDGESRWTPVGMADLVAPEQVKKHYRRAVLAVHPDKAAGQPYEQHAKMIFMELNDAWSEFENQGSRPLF

[3] = metabolite identification in mouse liver microsomes
Description: After centrifugation, the supernatant was subjected to analysis by LCMS, and structures of metabolites were assigned on the basis of their molecular weight and fragmentation pattern.
Compounds were incubated at a concentration of 10 µM with mouse liver microsomes in the presence of an excess of NADPH.
1.1. General Numbering of Metabolites
The metabolites are numbered according to their retention times in the gradient LC-MS analysis in positive […]
ion mode. […] The M number increases […]
consecutively for metabolites with increasing retention time.
To avoid confusion, labelled retention times of a metabolite peak in different injections are the same, which may lead to mismatch between labelled retention time and actual retention time.
General Strategy for Metabolite Identification
The vehicle control and study samples were injected into LC-MS with gradient elution using a Q1 scan method. Searching for potential metabolites was then performed using LightSight software (Applied Biosystems/MDS Sciex) by comparing a total ion current chromatogram of Q1 scan from a study sample with a chromatogram from the corresponding vehicle control sample. The study sample was then injected again to obtain the product ion spectra of potential metabolites using product ion scan methods. The fragmentation patterns of the potential metabolites were then compared to the fragmentation of the parent compound to elucidate the structures of the metabolites.
The assignment of fragments is shown
2.2. Identification of Metabolites in Mouse Liver Microsomal Incubation

AAK1 = AAK1 (Homo sapiens, UniProt Q2M2I8); assay: NAK family TR-FRET binding displacement assay; conditions: NAK family FRET screening
BMP2K = BMP2K (Homo sapiens, UniProt Q9NSY1); assay: NAK family TR-FRET binding displacement assay
Kinetic Solubility = assay type: physicochemical; conditions: pH 7.4, aqueous buffer, kinetic from dmso stock, PBS pH7.4 (100 µM)
ERBB3 = target: T2, ERBB3 (Homo sapiens, UniProt P21860); assay: KINOMEscan; assay type: binding; conditions: 35 at 1 µM; read-out: % inhibition
T2 construct: purchased Eurofins DiscoverX (KINOMEscan)
Description: (§1) KinomeScan Assay on 35 was performed as previously described at EuroFins DiscoverX (Fremont, CA, USA).

[4] = target: T3, ABL1(Q252H)-nonphosphorylated (Homo sapiens, UniProt P00519, Q252H); assay: KINOMEscan; assay type: binding; conditions: 35 at 1 µM; read-out: % inhibition
T3 construct: purchased Eurofins DiscoverX (KINOMEscan)
Description: as §1

NEK7 = target: T4, NEK7 (Homo sapiens, UniProt Q8TDX7); assay: KINOMEscan; assay type: binding; conditions: 35 at 1 µM; read-out: % inhibition
T4 construct: purchased Eurofins DiscoverX (KINOMEscan)
Description: as §1

EGFR(G719S) = target: T5, EGFR(G719S) (Homo sapiens, UniProt P00533, G719S); assay: KINOMEscan; assay type: binding; conditions: 35 at 1 µM; read-out: % inhibition
T5 construct: purchased Eurofins DiscoverX (KINOMEscan)
Description: as §1

ERBB2 = target: T6, ERBB2 (Homo sapiens, UniProt P04626); assay: KINOMEscan; assay type: binding; conditions: 35 at 1 µM; read-out: % inhibition
T6 construct: purchased Eurofins DiscoverX (KINOMEscan)
Description: as §1

GAK [5] = target: T1, GAK; assay: live cell NanoBRET target engagement assay; assay type: cell-based; conditions: nanoBRET; mean average, n = 2
[6] = Clint (mL/min/kg) (+) ABT, (+) ABT
[7] = Clint (mL/min/kg) (−) ABT, (−) ABT
[8] = T1/2 (min), mouse liver microsomes with NADPH
[9] = read-out: Kinetic Solubility µM
[10] = read-out: Kinetic Solubility µg/mL

Sequence of STK16 (O75716 whole entry): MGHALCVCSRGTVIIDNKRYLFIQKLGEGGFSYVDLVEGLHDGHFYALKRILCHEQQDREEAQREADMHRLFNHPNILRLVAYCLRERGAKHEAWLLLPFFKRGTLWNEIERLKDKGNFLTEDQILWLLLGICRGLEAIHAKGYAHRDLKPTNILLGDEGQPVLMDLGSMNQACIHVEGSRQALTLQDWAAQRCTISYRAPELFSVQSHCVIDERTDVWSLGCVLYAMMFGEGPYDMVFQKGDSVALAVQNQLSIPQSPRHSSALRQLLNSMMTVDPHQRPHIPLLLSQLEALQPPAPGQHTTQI
Sequence of AAK1 (Q2M2I8 whole entry): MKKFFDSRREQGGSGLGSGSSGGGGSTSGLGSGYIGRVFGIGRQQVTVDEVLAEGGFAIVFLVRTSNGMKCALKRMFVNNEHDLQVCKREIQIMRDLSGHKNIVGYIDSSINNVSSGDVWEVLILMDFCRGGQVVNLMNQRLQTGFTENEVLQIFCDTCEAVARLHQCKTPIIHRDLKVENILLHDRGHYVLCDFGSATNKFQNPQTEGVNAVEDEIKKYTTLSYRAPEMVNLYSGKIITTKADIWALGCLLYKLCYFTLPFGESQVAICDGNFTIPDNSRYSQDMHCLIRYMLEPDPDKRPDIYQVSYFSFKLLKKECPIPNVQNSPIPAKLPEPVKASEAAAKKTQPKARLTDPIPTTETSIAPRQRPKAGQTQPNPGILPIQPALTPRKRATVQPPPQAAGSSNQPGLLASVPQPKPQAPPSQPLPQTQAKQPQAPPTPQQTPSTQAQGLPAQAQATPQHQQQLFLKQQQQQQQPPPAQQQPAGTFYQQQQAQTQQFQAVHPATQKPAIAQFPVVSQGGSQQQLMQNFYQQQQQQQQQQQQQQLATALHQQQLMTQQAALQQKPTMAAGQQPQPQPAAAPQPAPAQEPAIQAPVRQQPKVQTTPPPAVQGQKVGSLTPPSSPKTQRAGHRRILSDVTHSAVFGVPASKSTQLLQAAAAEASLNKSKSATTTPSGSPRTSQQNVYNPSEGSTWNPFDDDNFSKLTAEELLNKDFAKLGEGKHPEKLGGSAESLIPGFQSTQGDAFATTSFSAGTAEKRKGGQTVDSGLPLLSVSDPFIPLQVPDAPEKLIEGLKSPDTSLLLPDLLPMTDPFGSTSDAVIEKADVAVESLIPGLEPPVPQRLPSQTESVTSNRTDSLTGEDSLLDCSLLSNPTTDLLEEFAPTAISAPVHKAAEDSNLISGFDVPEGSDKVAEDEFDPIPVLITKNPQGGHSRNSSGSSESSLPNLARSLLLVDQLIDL
Sequence of BMP2K (Q9NSY1 whole entry): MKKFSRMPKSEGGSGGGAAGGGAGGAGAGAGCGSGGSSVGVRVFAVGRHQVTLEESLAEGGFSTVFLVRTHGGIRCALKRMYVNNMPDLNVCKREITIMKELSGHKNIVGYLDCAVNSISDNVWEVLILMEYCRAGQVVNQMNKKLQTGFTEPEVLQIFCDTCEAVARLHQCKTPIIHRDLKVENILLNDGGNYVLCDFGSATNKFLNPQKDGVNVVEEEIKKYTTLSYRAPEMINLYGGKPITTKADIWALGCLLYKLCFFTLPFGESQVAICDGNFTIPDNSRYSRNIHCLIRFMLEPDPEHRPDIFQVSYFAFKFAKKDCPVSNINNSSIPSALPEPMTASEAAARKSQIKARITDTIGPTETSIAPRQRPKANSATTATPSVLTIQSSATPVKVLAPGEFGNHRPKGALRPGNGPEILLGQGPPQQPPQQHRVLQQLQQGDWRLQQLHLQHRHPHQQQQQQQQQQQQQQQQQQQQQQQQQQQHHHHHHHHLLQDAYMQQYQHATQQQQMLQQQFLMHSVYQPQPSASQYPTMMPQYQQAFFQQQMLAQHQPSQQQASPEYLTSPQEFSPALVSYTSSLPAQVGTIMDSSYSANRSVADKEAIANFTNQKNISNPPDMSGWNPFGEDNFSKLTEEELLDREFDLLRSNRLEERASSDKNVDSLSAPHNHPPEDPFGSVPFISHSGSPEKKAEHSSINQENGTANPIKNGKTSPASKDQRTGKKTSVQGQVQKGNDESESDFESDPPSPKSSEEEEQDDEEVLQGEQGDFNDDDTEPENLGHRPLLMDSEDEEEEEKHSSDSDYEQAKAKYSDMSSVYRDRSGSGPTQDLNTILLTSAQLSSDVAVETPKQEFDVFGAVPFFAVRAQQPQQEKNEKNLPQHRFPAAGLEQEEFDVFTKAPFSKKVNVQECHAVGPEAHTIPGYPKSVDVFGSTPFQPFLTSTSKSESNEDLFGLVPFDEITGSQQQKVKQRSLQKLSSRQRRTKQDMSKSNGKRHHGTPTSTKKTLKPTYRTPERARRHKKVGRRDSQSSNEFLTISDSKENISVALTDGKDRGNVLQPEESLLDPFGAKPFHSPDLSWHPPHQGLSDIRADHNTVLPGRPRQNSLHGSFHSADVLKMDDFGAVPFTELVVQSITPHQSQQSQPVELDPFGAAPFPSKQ
T2 sequence (P21860 20-1342): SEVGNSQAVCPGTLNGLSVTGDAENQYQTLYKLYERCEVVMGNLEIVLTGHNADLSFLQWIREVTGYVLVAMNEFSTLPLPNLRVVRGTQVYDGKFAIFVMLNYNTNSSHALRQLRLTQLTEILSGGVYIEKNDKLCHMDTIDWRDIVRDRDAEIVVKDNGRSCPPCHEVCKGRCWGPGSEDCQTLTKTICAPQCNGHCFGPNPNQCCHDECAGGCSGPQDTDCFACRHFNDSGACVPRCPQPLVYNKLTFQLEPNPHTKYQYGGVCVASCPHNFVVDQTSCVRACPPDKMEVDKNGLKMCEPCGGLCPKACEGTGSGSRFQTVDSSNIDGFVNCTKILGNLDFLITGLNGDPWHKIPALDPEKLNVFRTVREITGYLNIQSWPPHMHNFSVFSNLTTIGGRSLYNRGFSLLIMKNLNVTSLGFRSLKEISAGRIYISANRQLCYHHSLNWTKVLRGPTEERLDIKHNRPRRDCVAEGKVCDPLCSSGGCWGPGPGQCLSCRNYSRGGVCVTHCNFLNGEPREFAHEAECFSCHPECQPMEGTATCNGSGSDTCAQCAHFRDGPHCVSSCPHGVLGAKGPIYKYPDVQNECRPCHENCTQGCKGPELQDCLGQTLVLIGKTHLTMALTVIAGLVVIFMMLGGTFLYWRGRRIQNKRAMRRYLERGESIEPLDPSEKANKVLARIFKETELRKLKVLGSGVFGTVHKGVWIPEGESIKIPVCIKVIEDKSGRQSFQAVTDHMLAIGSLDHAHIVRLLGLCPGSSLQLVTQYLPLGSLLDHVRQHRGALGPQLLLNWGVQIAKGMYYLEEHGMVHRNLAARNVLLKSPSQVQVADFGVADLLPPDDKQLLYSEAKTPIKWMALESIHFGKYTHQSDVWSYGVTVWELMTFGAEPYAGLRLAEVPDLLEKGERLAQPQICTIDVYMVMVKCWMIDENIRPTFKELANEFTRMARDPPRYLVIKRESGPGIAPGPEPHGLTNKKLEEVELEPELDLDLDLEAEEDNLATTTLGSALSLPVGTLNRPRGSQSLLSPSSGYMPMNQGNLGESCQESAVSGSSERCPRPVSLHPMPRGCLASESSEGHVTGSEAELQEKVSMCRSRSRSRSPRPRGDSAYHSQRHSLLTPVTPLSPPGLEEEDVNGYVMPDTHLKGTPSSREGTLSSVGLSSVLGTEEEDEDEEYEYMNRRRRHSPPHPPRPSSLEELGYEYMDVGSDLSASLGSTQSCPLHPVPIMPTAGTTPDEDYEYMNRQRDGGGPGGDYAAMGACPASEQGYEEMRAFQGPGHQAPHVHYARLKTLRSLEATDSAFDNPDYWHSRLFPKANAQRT
T6 sequence (P04626 23-1255): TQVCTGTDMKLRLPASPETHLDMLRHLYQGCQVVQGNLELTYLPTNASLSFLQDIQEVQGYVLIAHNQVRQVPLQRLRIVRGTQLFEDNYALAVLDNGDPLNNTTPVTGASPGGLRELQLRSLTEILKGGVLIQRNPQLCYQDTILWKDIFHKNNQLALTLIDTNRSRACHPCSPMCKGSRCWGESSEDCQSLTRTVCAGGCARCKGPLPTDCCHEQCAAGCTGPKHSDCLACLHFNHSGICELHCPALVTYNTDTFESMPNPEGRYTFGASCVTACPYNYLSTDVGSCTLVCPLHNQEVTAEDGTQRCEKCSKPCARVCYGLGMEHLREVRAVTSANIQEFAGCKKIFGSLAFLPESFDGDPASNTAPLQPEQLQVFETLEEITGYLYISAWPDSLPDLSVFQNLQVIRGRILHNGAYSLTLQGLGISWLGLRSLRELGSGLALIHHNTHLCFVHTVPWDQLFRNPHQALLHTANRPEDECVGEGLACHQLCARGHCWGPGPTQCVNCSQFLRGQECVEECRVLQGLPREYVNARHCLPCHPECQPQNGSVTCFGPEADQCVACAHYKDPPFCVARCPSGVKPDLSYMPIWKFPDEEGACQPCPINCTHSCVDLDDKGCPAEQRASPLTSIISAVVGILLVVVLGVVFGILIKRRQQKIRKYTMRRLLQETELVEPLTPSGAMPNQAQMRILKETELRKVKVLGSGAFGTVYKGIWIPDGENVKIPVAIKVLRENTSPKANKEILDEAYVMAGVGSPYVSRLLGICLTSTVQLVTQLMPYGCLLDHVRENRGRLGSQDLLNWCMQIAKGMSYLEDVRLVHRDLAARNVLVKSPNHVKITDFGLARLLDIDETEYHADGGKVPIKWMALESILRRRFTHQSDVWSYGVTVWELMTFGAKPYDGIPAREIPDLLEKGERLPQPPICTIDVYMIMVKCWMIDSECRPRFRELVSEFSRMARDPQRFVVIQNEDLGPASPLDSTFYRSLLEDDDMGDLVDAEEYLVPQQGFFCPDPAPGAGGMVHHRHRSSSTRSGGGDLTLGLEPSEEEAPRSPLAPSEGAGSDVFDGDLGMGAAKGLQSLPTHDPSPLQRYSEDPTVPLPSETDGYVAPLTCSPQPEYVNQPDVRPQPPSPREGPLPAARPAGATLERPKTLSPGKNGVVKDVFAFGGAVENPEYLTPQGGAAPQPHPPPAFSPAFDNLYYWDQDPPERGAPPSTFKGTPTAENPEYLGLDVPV

In the case of `COc1cc2nccc(Nc3cc(OC)c(OC)c(OC)c3)c2cc1OC` [Compound 8], the Ki (STK16) is reported as greater than 100 µM, the “T1/2 Ratio (+) ABT” value ([1]; (+) ABT) is reported as 14.7 and the “T1/2 Ratio (−) ABT” value ([1]; (−) ABT) is reported as 1.3. The “T1/2 Ratio” value [1] was 1.6, the CLint scaled [1, 6] was less than 28 mL/min/kg and the CLint scaled [1, 7] was 320 mL/min/kg. It also gave a half-life ([1]; T1/2 (min) (+) ABT, (+) ABT) greater than 200 min, a half-life ([1]; T1/2 (min) (−) ABT, (−) ABT) of 18 min and a half-life [1, 8] of 12.2 min. For the same compound, the Ki (GAK [2]; NAK family FRET screening, read-out: Binding displacement assay GAK Ki) was 0.00054 µM, the “Primary Metabolism Site” value [3] was “Aniline” and the Ki (AAK1) was 28 µM. The Ki (BMP2K) was 63 µM, the solubility kinetic (Kinetic Solubility; [9]) was 128 µM and the solubility kinetic (Kinetic Solubility; [10]) was 47.6 µg/mL.
With `Brc1ccc2nccc(Nc3ccc4cn[nH]c4c3)c2c1` [Compound 35, 6-Bromo-N-(1H-indazol-6-yl)quinolin-4-amine] the Ki (STK16) was 7.4 µM, the activity at 1 µM (ERBB3) was 100% and the activity at 1 µM [4] was 58%. It also gave an activity at 1 µM (NEK7) of 92%, an activity at 1 µM (EGFR(G719S)) of 97% and an activity at 1 µM (ERBB2) of 100%. The “T1/2 ratios fold higher than 9” value [1] was no less than 2 fold, the “T1/2 Ratio (+) ABT” value ([1]; (+) ABT) was 17.5 and the “T1/2 Ratio (−) ABT” value ([1]; (−) ABT) was 9.8. The “T1/2 Ratio” value [1] was 9.8, the CLint scaled [1, 6] was 35 mL/min/kg and the CLint scaled [1, 7] was 120 mL/min/kg. The half-life ([1]; T1/2 (min) (+) ABT, (+) ABT) was 170 min, the half-life ([1]; T1/2 (min) (−) ABT, (−) ABT) was 46 min and the half-life [1, 8] was 45.6 min. The Ki (GAK [2]; TR-FRET assay, read-out: Biochemical GAK Ki) was 0.02 µM, the IC50 (GAK [5]) was 1.4 µM and the Ki (AAK1) was 2.1 µM. For the same compound, the Ki (BMP2K) was 6.5 µM, the solubility kinetic (Kinetic Solubility; [9]) was 12.3 µM and the solubility kinetic (Kinetic Solubility; [10]) was 4.2 µg/mL.
